Measurements from publication PMC7251241 (EBioMedicine, 2020).

How the values were obtained:
[1] = biological target: T1, SapC (saposin C) (Homo sapiens, UniProt P07602); test: microscale thermophoresis; format: binding
T1 sequence (P07602 311-390 limits assumed): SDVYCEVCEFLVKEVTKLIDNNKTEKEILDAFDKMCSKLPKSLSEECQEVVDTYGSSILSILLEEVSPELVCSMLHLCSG

[2] = biological target: T2, acid β-glucosidase (GCase), Velaglucerase alfa (human, UniProt P04062 40-536, mannosyl-terminated oligosaccharide chains); test: MST
T2 sequence (looked up): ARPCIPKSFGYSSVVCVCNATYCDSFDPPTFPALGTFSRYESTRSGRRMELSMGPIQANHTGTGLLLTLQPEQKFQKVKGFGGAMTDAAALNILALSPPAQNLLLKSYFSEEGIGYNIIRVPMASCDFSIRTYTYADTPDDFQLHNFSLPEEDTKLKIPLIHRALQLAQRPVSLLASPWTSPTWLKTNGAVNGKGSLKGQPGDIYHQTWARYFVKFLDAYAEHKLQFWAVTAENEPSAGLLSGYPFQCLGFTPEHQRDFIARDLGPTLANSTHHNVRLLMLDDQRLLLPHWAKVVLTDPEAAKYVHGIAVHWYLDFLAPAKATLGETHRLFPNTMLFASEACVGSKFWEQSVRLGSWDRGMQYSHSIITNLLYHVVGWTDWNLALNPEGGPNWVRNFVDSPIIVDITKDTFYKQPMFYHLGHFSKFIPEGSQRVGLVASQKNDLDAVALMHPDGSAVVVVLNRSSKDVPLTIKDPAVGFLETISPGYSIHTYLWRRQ

CCCCCCCC/C=C\CCCCCCCC(=O)OC[C@H](COP(=O)(O)OC[C@H](N)C(=O)O)OC(=O)CCCCCCC/C=C\CCCCCCCC [DOPS]
Kd [1]: 0.0135 ± 0.00165 µM

B1: saposin C (SapC) (natural protein, UniProt P07602 311-390, looked up)
chain: SDVYCEVCEFLVKEVTKLIDNNKTEKEILDAFDKMCSKLPKSLSEECQEVVDTYGSSILSILLEEVSPELVCSMLHLCSG
Kd [2]: 0.0294 ± 0.00191 µM
